From US7632819B1, “Methods and compositions for inhibiting PKC delta cleavage for treatment and prevention of neurodegeneration and apoptosis” (Iowa State University Research Foundation, Inc., priority 2004, dated 2009)
Read-outs that look alike come from different tables or passages of the source. The star is where a group is joined. Cbz = O=C(OCc1ccccc1)*; CH2F = FC*

Legend:
N27 cells = conditions: for increase in DNA fragmentation compared to untreated cells: toxin alone
Experimental: […] Z is the abbreviation for N-benzyloxycarbonyl. Untreated cells were used as control samples. After the treatment, the cells were collected by trypsinization (Trypsin 0.25%, 1 mM EDTA), centrifuged at 200×g for 5 min, washed with PBS twice, then lysed. The lysate was used for DNA fragmentation assay.
DNA fragmentation assays were performed using a recently developed Cell Death Detection ELISA Plus Assay Kit. This is a fast, highly sensitive and reliable assay for the detection of early changes in apoptotic cell death. After treatments, 20 μl of cell lysate was processed according to the manufacturer's protocol. The assay solution consisted of a mixture of anti-histone biotin and anti-DNA-HRP directed against various histones and antibodies to both single stranded DNA and double stranded DNA, the major constituents of nucleosomes. After 2 hr incubation, unbound components were removed by washing with the incubation buffer supplied with the kit. Quantification of the nucleosomes retained by anti-DNA-HRP in the immunocomplex was determined spectrophotometrically with ABTS (2,2′-azino-di[3-ethoxybenzyl thiazoline sulfonate) as a HRP substrate (supplied with the kit). Measurements were made at 405 nm against an ABTS solution as a blank (reference wave length 490 nm).
(§1) Chemicals. Protease cocktail, ATP, protein-A-sepharose, protein-G-sepharose and anti-â-actin antibody were obtained from Sigma-Aldrich (St. Louis, Mo.); mouse tyrosine hydroxylase antibody was purchased from Chemicon (Temecula, Calif.); the rabbit polyclonal antibody for tyrosine hydroxylase was obtained from Calbiochem Bioscience, Inc. (King of Prussia, Pa.); rabbit PKCδ antibody was purchased from Santa Cruz Biotechnology, Inc. (Santa Cruz, Calif.); anti-rabbit and anti-mouse secondary antibodies and the ECL chemiluminescence kit were purchased from Amersham Pharmacia Biotech. (Piscataway, N.J.). Alexa 488 conjugated antirabbit/mouse, Cy3 conjugated anti-rabbit/mouse antibody and Hoechst 33342 were purchased from Molecular Probes, Inc. (Eugene, Oreg.). [ã-32P]ATP was purchased from Perkin Elmer Life Science Products (Boston, Mass.). The Bradford protein assay kit was purchased from Bio-Rad Laboratories (Hercules, Calif.). RPMI, fetal bovine serum, -glutamine, penicillin, and streptomycin were purchased from Invitrogen (Gaithersburg, Md.). Quantity One 4.2.0 software was purchased from Bio-Rad. Design and synthesis of z-DIPD-fmk (SEQ ID NO:5). To develop a cell permeable peptide inhibitor to specifically block PKCδ cleavage, we designed the tetrapeptide Asp-Ile-Pro-Asp (DIPD) (SEQ ID NO:5) corresponding to position 324-327 in rat PKCδ cDNA representing the caspase-3 cleavage site. Since this peptide is directed against the caspase-3 cleavage site of PKCδ, it should prevent the proteolytic cleavage and activation of PKCδ mediated by caspase-3. The custom synthesis of the tetrapeptide Z-Asp(OMe)-Ile-Pro-Asp(OMe)-FMK (SEQ ID NO:5) was performed at MP Biomedicals (Irvine, Calif.), a quality company that specializes in developing cell permeable peptide inhibitors directed against apoptosis cell signaling molecules. Briefly, the synthesis was performed with the reaction of Boc-D(OMe)-OH with MBFM (Magnesium benzyl fluoromalonate) to produce Beta-Keto fluoroester, followed by hydrogenation with Pd/c to produce Boc-D(OMe)FK, which was converted into Tfa salt using trifluoroacetic acid. Coupling of Tfa salt with Z-D(OMe)—I—P—OH in DMF with HOBT, HBTU DIEA and workup produced a crude product which was purified by column chromatography over silica gel. Elution with EtOAC:MeOH 95:5 gave pure fractions which were mixed and dried. Crystallization with EtOAC/Hexane, filtration and drying produced the pure product. Animals.

[1] = tested on: N27 mesencephalic neuronal cells; assay: MTT cytotoxicity assay, MPP+- and 6-OHDA-induced cytotoxicity; conditions: N27 cells, 300 μM MPP+ 36 hr, toxin alone
Text: as §1, with “Briefly, the synthesis was performed with the reaction of Boc-D(OMe)-OH with MBFM (Magnesium benzyl fluoromalonate) to produce Beta-Keto fluoroester, followed by hydrogenation with Pd/c to produce Boc-D(OMe)FK, which was converted into Tfa salt using trifluoroacetic acid. Coupling of Tfa salt with Z-D(OMe)—I—P—OH in DMF with HOBT, HBTU DIEA and workup produced a crude product which was purified by column chromatography over silica gel. Elution with EtOAC:MeOH 95:5 gave pure fractions which were mixed and dried. Crystallization with EtOAC/Hexane, filtration and drying produced the pure product. Animals.” left out

caspase-3 [2] = biological target: T1, caspase-3 (Rattus norvegicus, UniProt P55213); assay: Caspase-3 activity assay with fluorogenic substrate Ac-DEVD-AFC in treated N27 cells; format: cell-based; conditions: toxin alone
T1 construct: N27 cells were exposed to either MPP^+ or 6-OHDA in the absence or presence of z-DIPD-fmk; endogenous in cells; host or cells: N27 rat mesencephalic dopaminergic neuronal cells
T1 sequence (P55213 29-175 limits assumed): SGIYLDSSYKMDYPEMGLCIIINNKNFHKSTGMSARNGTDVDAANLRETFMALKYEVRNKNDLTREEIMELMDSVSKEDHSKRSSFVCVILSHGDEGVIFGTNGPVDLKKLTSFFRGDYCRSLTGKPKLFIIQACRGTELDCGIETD
T1 sequence (P55213 176-277 limits assumed): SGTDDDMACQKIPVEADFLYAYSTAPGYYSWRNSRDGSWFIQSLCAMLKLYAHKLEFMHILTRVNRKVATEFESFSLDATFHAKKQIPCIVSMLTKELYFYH
Text: as §1, with “Animals. Time-pregnant C57/bL mice were housed under standard conditions: constant temperature (22±1° C.), humidity (relative, 30%) and a 12-h light/dark cycle with free access to food and water. The animals and protocol procedures were approved and supervised by the Committee on Animal Care (COAC) at Iowa State University. Cell culture. Rat mesencephalic dopaminergic neuronal (N27) cells were cultured as described earlier (Anantharam et al., 2002). Briefly, cells were grown in RPMI 1640 medium containing 10% fetal bovine serum, 2 mM L-glutamine, 50 units of penicillin, and 50 μg/ml streptomycin. Cells were maintained in a humidified atmosphere of 5% CO2 at 37° C. Primary mesencephalic neuronal cultures were prepared from the ventral mesencephalon of gestational 18-day-old mice embryos as described previously (Yang et al., 2004). Mesencephalic tissues were dissected and maintained in ice-cold Ca2+-free HBSS and then dissociated in HBSS solution containing trypsin-EDTA (0.25%) for 20 min at 37° C. […]” for “Animals.”

PKCδ = assay: Immunoprecipitation kinase assay (histone H1 phosphorylation) in N27 cells; format: cell-based, rat; conditions: toxin alone
Text: as §1, with “Animals. Time-pregnant C57/bL mice were housed under standard conditions: constant temperature (22±1° C.), humidity (relative, 30%) and a 12-h light/dark cycle with free access to food and water. The animals and protocol procedures were approved and supervised by the Committee on Animal Care (COAC) at Iowa State University. Cell culture. […]” for “Animals.”

[3] = MTT cytotoxicity assay, MPP+- and 6-OHDA-induced cytotoxicity; conditions: rat
Text: as §1, with “Briefly, the synthesis was performed with the reaction of Boc-D(OMe)-OH with MBFM (Magnesium benzyl fluoromalonate) to produce Beta-Keto fluoroester, followed by hydrogenation with Pd/c to produce Boc-D(OMe)FK, which was converted into Tfa salt using trifluoroacetic acid. Coupling of Tfa salt with Z-D(OMe)—I—P—OH in DMF with HOBT, HBTU DIEA and workup produced a crude product which was purified by column chromatography over silica gel. Elution with EtOAC:MeOH 95:5 gave pure fractions which were mixed and dried. Crystallization with EtOAC/Hexane, filtration and drying produced the pure product. Animals.” left out

caspase-3 [4] = biological target: T2, caspase-3 (rat, UniProt P55213 29-277, limits assumed); assay: cell-based or functional assay
T2 sequence (looked up): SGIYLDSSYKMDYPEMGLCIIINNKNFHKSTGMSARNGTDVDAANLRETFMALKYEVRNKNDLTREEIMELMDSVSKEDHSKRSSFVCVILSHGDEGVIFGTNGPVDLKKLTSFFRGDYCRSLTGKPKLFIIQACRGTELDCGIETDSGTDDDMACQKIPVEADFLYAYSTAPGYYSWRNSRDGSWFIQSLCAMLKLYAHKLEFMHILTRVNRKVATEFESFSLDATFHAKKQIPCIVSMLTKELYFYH

Molecule: C[n+]1ccc(-c2ccccc2)cc1 [MPP^+, 1-methyl-4-phenylpyridinium, reference compound]
- increase in DNA fragmentation compared to untreated cells (N27 cells; 300 μM MPP+ 36 hr): 75%
- loss of cell viability (MTT) [1]: more than 40%
- increase in caspase-3 enzyme activity (caspase-3 [2]; 300 μM MPP+ 36 hr): ~2.5 fold
- increase in PKCδ enzymatic activity over the untreated cells (PKCδ; 300 μM MPP+ 36 hr): 333%

Molecule: COC(=O)CC[C@H](NC(=O)[C@H](CC(=O)OC)NC(=O)OCc1ccccc1)C(=O)N[C@H](C(=O)N[C@@H](CC(=O)OC)C(=O)CF)C(C)C [z-DEVD-fmk, Asp-Glu-Val-Asp-FMK, reference compound]
- effect on 6-OHDA-induced DNA fragmentation / apoptotic cell death (N27 cells; 100 μM 6-OHDA 24 hr, concentration not stated or dose-response 1-50 μM): dose dependently blocked
- IC50 (N27 cells; read-out: IC50, 6-OHDA-induced DNA fragmentation (apoptotic cell death), 100 μM 6-OHDA 24 hr, inhibitor 1-50 μM): 18 µM

Molecule: NCCc1cc(O)c(O)cc1O [6-OHDA, 6-hydroxydopamine, reference compound]
- increase in DNA fragmentation compared to untreated cells (N27 cells; 100 μM 6-OHDA 24 hr): 93%
- cytotoxicity at 24 h, 100 μM [3]: > 60%
- increase in caspase-3 enzyme activity (caspase-3 [2]; 100 μM 6-OHDA 24 hr): ~2.5 fold
- increase in PKCδ enzymatic activity over the untreated cells (PKCδ; 100 μM 6-OHDA 24 hr): 235%

B1: z-DEVD-fmk (Asp-Glu-Val-Asp-FMK) (peptide)
peptide: Cbz-DEVD-CH2F
SMILES: CC(C)[C@H](NC(=O)[C@H](CCC(=O)O)NC(=O)[C@H](CC(=O)O)NC(=O)OCc1ccccc1)C(=O)N[C@@H](CC(=O)O)C(=O)CF
- IC50 for inhibition of 6-OHDA-induced DNA fragmentation (Cell Death Detection ELISA) in N27 cells (caspase-3 [4]): 18 µM

B2: Z-Asp(OMe)-Ile-Pro-Asp(OMe)-FMK (N-benzyloxycarbonyl-Asp(OMe)-Ile-Pro-Asp(OMe)-fluoromethyl ketone) (peptide)
peptide: Cbz-D(OMe)IPD(OMe)-CH2F
SMILES: CC[C@H](C)[C@H](NC(=O)[C@H](CC(=O)OC)NC(=O)OCc1ccccc1)C(=O)N1CCC[C@H]1C(=O)N[C@@H](CC(=O)OC)C(=O)CF
- IC50 for inhibition of 6-OHDA-induced DNA fragmentation (Cell Death Detection ELISA) in N27 cells (caspase-3 [4]): 6 µM
